Consider 1 compound from patent publication US7998965B2, “Glutamate aggrecanase inhibitors” (Wyeth LLC, priority 2005, dated 2011).

Molecules are shown by their SMILES. Values after ≈ are worked out from the molar mass of the structure shown.

Test [1] deals with Aggrecanase-mediated aggrecan cleavage in human OA cartilage explants. Briefly: Human osteoarthritic cartilage explant efficacy study (BC3 western analysis). Format: cell-based. From the text: (§1) Human OA Cartilage Explant Culture: Discarded tissues from consented knee replacement patients were obtained from New England Baptist Hospital (Brookline, Mass.) in sterile phosphate buffered saline (PBS) after about 2-4 hrs post surgery. Cartilage slices were harvested from the knee specimens and washed several times in PBS. These cartilage slices were cut into appropriate pieces (6-8 mm) and rinsed in PBS and then in media and further cultured for additional days as cartilage explants. The medium consisted of Dulbecco's Modified Eagle's medium (DMEM, JRH Biosciences, Lenexa, Kans.), 50 μg/ml ascorbic acid (Wako, Osaka, Japan), 10 mM HEPES, pH 7.0 (Mediatech, Herndon, Va.), 2 mM L-glutamine (Mediatech), 100 U/ml antibiotic-antimycotic solution (Mediatech).
Test compounds: The test compounds are described in Examples 8OO, 8NNNNNNN, and 8WWWWWWW. Stock solutions of the compounds were prepared at 1 mg/ml in DMSO, aliquoted and stored at −20° C. Working solutions of the compounds were made in DMSO and added to the culture for efficacy studies.
Efficacy study: Cartilage explants were cultured for 2-3 days in DMEM medium in a 37° C. and 5% CO2 environment to equilibrate the tissue. Explants were weighed (˜250 mg) and placed in wells of a 24-well culture dish in 1 ml of medium and 3 replicates per treatment group. For the efficacy study, cartilage explants were cultured for 6 days in the presence or absence of various concentrations of the test compound. The media was replaced on day 3 and the experiment was terminated on day 6. Total aggrecan content of conditioned media was measured by a colorimetric assay with DMMB (Farndale, R W et al., Biochim Biophys Acta. 1986, 883, 173-177).
Western analysis: Aggrecan fragments in conditioned medium were analyzed by western analysis using neoepitope antibody, BC-3 designed to recognize the Aggrecanase-generated N-terminal interglobular neoepitope ^374ARGS. Equal cartilage weight equivalent conditioned media from each replicate well per treatment group was pooled and digested with Chondroitinase ABC (Sigma, St Louis, Mo.), Keratinase I (Seikagaku America, Falmouth, Mass.) and Keratinase II (Seikagaku America, Falmouth, Mass.) for 2 h at 37° C. Samples were concentrated by YM-10 centrifugal filter device (Millipore Corp., Bedford, Mass.), lyophilized and reconstituted with equal volume of water. Samples were separated under reducing conditions on 4-12% gradient Tris-glycine gels (Invitrogen, Carlsbad, Calif.). Proteins from the gels were transferred to nitrocellulose membranes. Immunoblots were probed using Mab BC-3 (Abcam, Cambridge, Mass.). Incubation with primary and alkaline-phosphatase-conjugated secondary goat anti-mouse IgG (Promega Corp., Madison, Wis.) was performed overnight at 4° C. and at room temperature for 1 h, respectively. The immunoblots were incubated with NBT/BCIP substrate (Promega Corp., Madison, Wis.) at room temperature to achieve optimum color development. The aggrecan fragments containing the ARGS neoepitope were quantitated by densitometry analysis and the percentage inhibition of aggrecan degradation by test compounds was determined.

In test [2] the test system is newly synthesized aggrecan in human OA articular cartilage. In words: Cartilage aggrecan metabolism study in human OA cartilage explants. The class given is cell-based. As to conditions: cartilage from 3 human OA donors, 35SO4 label.
Source text: as §1
Cartilage aggrecan metabolism study: Cartilage metabolism study was performed with test compound 8OO. Cartilage explants immediately after harvest were cultured in the presence or absence of test compound 8OO. On day 3, media was collected and replaced with media, test compound and labeled sulfate (^35SO4,5 mCi, Perkin Elmer, Boston, Mass.). On day 6, media was collected, explants washed and replaced with media and test compound 8OO. […] Labeled aggrecan molecules were counted using Opti-Fluor (Perkin Elmer) and a liquid scintillation-measuring instrument (Beckman Coulter, Fullerton, Calif.). […]

The target in test [3] is T1, recombinant human MMP-2 (Homo sapiens, UniProt P08253).
T1 sequence (P08253 110-660): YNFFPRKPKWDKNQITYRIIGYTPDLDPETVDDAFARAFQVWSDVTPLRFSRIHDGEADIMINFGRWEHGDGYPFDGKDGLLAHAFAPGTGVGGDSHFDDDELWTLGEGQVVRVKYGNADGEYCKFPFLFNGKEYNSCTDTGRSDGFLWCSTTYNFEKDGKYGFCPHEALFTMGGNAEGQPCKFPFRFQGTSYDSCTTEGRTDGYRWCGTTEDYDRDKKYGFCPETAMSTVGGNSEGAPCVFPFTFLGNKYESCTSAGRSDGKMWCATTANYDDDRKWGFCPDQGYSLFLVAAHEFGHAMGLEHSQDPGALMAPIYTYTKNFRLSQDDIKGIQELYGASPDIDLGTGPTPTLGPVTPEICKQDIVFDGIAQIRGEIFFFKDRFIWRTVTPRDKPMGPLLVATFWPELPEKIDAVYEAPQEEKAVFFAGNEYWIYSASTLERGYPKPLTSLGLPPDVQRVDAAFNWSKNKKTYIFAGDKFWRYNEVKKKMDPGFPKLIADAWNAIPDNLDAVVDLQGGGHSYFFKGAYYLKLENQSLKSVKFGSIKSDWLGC
In words: In vitro fluorescence assay of MMP-2 activity.

In general, EC50 refers to the concentration that produces a half-maximal response. What is called inhibition is the drop in the measured response relative to a control, in per cent. Usually IC50 stands for the concentration that gives 50% inhibition. With `CC(C)(Cc1ccc(F)cc1)NC(=O)[C@H](CCC(=O)O)NC(=O)c1ccc(-c2ccccc2)cc1` [Example 8OO, N^2-(1,1′-biphenyl-4-ylcarbonyl)-N^1-[2-(4-fluorophenyl)-1,1-dimethylethyl]-L-α-glutamine], the EC50 in test [1] (144 h, human OA cartilage explants, 6 days, BC3 analysis, read-out: EC50 (inhibition of aggrecanase generated aggrecan fragments)) is about 0.15 µg/mL (≈ 0.315 µM). Further, in test [1] (Homo sapiens, 0.02 ug/ml, average of 15 donors, read-out: % inhibition (BC3 analysis)), the inhibition at 0.02 µg/mL was determined as 8.52%. Further, the inhibition at 0.04 µg/mL in test [1] (Homo sapiens, 0.04 ug/ml, average of 15 donors, read-out: % inhibition (BC3 analysis)) is 26.2%. In addition, the inhibition at 0.08 µg/mL in test [1] (Homo sapiens, 0.08 ug/ml, average of 15 donors, read-out: % inhibition (BC3 analysis)) was determined as 42.9%. The inhibition at 0.15 µg/mL in test [1] (Homo sapiens, 0.15 ug/ml, average of 15 donors, read-out: % inhibition (BC3 analysis)) turned out to be 49%. In addition, the inhibition at 0.3 µg/mL in test [1] (Homo sapiens, 0.3 ug/ml, average of 15 donors, read-out: % inhibition (BC3 analysis)) was determined as 56.4%. For the same compound, in test [1] (Homo sapiens, 0.6 ug/ml, average of 15 donors, read-out: % inhibition (BC3 analysis)), the inhibition at 0.6 µg/mL came out at 73.9%. The inhibition at 1.25 µg/mL in test [1] (Homo sapiens, 1.25 ug/ml, average of 15 donors, read-out: % inhibition (BC3 analysis)) was 83.4%. In test [1] (Homo sapiens, 2.5 ug/ml, average of 15 donors), the inhibition at 2.5 µg/mL is 101%. Further, the inhibition at 5 µg/mL in test [1] (Homo sapiens, 5 ug/ml, average of 15 donors) was determined as 98.9%. Besides, the inhibition at 10 µg/mL in test [1] (Homo sapiens, 10 ug/ml, average of 15 donors) was 102%. Also, in test [2], the “aggrecan released into the medium” value was “equivalent decrease” and the “newly synthesized aggrecan content of the cartilage matrix” value is given as “dose dependent increase”. In addition, in test [3], the IC50 was over 20 µM.
